How the values were obtained:
[1] = test system: primary hepatocytes; assay: ceramide treatment of cultured primary hepatocytes; type: cell-based, mouse
Description: Primary hepatocytes from 6-week-old C57BL/6N mice were obtained by collagenase 1 (Invitrogen, Carlsbad, Calif.) perfusion. The cells were purified by 45% Percoll (Sigma, St. Louis, Mo.) density centrifugation and cultured in DMEM (Invitrogen, Carlsbad, Calif.) with 10% fetal bovine serum and 1% Insulin-Transferrin-Selenium-Ethanolamine (ITS-X) (Invitrogen, Carlsbad, Calif.). The viability of hepatocytes was determined using trypan blue dye exclusion, and those with higher than 85% viability were used. The medium was changed to DMEM with 1% fetal bovine serum after culturing for 4 hours. After starvation for 4 hours, the cells were exposed to ceramide. At the prescribed time points, cells were harvested and subjected to qPCR analysis and TG content detection.
The mucosa of intestine was gently scraped and liver was taken and both were flash frozen in liquid nitrogen and stored at −80° C. until RNA was prepared. RNA was extracted from frozen intestine and liver using TRIzol reagent (Invitrogen, Carlsbad, Calif.). cDNA was synthesized from 1 μg total RNA using Superscript II reverse transcriptase (Invitrogen, Carlsbad, Calif.). qPCR primers were designed with qPrimerDepot. Measured mRNA levels were normalized to those of 18S ribosomal RNA and expressed as fold change relative to those of control group.
Liver whole-cell or nuclear extracts were prepared. Membranes were incubated with antibodies against FXR (Santa Cruz Biotechnology, Inc., Santa Cruz, Calif.), SREBP1 (BD Biosciences, San Jose, Calif.), and CIDEA (Abcam, Cambridge, Mass.). The signals obtained were normalized to β-ACTIN (Abcam) for whole cell extract and LAMIN A/C (Santa Cruz) for nuclear extracts.

[2] = target: T1, human FXR (Homo sapiens, UniProt Q96RI1); assay: human FXR competition assay (GAL4-FXR chimeric receptor luciferase, HEK293T); type: cell-based; conditions: in the presence of GW4064
T1 construct: expressed in transfected cells; host or cells: HEK293T
T1 sequence (Q96RI1 262-486 limits assumed): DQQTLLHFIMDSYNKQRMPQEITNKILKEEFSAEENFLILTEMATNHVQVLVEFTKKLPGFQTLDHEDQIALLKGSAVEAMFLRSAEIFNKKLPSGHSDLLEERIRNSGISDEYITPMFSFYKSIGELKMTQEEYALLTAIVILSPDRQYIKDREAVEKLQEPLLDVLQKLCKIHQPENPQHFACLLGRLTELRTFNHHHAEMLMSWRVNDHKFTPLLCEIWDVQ
Description: Luciferase detection was conducted using the Dual Luciferase Reporter Assay kit (Promega Corp., Madison, Wis.) and a Tecan GeniosPro luminescent plate reader (Research Triangle Park, N.C.).
Luciferase detection was conducted using the Dual Luciferase Reporter Assay kit (Promega; Madison, Wis.) and a Tecan GeniosPro™ luminescent plate reader (Research Triangle Park, N.C.).

Row | FXR activity induced by synthetic agonist GW4064 (luciferase, normalized to Renilla) [2] | Compound | mRNA of fatty acid synthesis and TG formation genes (Srebp1c, Cidea, Elovl6, Dgat2) ([1]; 16 hours, 2, 5, 10 μM ceramide) | mRNA of fatty acid β-oxidation genes (Cpt1, Acox1, Ehhadh, Acaa1a) ([1]; 16 hours, 2, 5, 10 μM ceramide) | triglyceride contents in primary hepatocytes ([1]; 24 hours, 2, 5, 10 μM ceramide) | protein levels of nuclear SREBP1-N and CIDEA ([1]; ceramide 2 μM and 10 μM, 24 hours)
1 | – | ceramide | significantly upregulated | not affected | significantly increased triglyceride contents | significantly induced
2 | inhibited FXR | C[C@H](CCC(=O)NCCS(=O)(=O)O)[C@H]1CC[C@H]2[C@@H]3[C@@H](O)[C@H](O)[C@@H]4C[C@H](O)CC[C@]4(C)[C@H]3CC[C@]12C [TWMCA] | – | – | – | –

Source: US10233209B2, “Inhibitors of the farnesoid x receptor and uses in medicine” (The United States of America, as represented by the …, priority 2013, dated 2019)
